Assay results: US20090018175A1, “Pharmaceutical excipient complex” (priority 2007, published 2009)
Like-named read-outs stand apart in the source and are kept apart here.

Assays:
[1] = Stability of the tablet produced according to Example 5 (impurity content on storage); assay type: physicochemical; settings: tablet of Example 5, four days at 70° C., 100 percent relative humidity
Experimental: As used herein, the term “stable” with reference to candesartan cilexetil relates to candesartan cilexetil having about 0.01% to about 0.5% of desethyl-candesartan (“desethyl-CNS”) impurity present in the total weight of the composition, after storage for four days at a temperature of 65° C. and a relative humidity of 100 percent; and/or having about 0.01% to about 0.5% of 2-N-ethyl candesartan (“2-N-ethyl CNS”) impurity present in the total weight of the composition, after storage for four days at a temperature of 65° C. and a relative humidity of 100 percent; and/or having about 0.01% to about 0.2% of impurities other than desethyl-CNS and 2-N-ethyl CNS present in the total weight of the composition, after storage for four days at a temperature of 65° C. and a relative humidity of 100 percent.

[2] = cited from earlier work

degradation of candesartan cilexetil when tabletted with the excipient complex (conclusion) [1]: did not degrade significantly
SMILES: CCOc1nc2cccc(C(=O)OC(C)OC(=O)OC3CCCCC3)c2n1Cc1ccc(-c2ccccc2-c2nnn[nH]2)cc1 (racemic) [candesartan cilexetil, (±)-1-[[(cyclohexyloxy)carbonyl]oxy]ethyl-2-ethoxy-1-[[2′-(1H-tetrazol-5-yl)[1,1′biphenyl]-4-yl]methyl]-1H-benzimidazole-7-carboxylate]
solubility ([2]; in methanol): sparingly soluble
solubility ([2]; in water): sparingly soluble
